This is an account of results in the PolyMetriX glass transition set.

`*C(=O)Nc1ccc(Oc2ccc(-c3ccc(Oc4ccc(NC(=O)c5ccc6c(c5)C(=O)N(c5ccc(C)c(N7C(=O)c8ccc(*)cc8C7=O)c5)C6=O)cc4)cc3)cc2)cc1` (repeat unit) had a glass transition temperature of 299.00 °C. With `*C(=O)Nc1ccc(Oc2ccccc2-c2ccccc2Oc2ccc(NC(=O)c3ccc4c(c3)C(=O)N(c3ccc(C)c(N5C(=O)c6ccc(*)cc6C5=O)c3)C4=O)cc2)cc1` (repeat unit) the figure was 266.00 °C; with `*C(=O)c1cc(C(=O)c2ccc3c(c2)C(=O)N(c2ccc(Oc4ccc(S(=O)(=O)c5ccc(Oc6ccc(N7C(=O)c8ccc(*)cc8C7=O)cc6)cc5)cc4)cc2)C3=O)cc(C(C)(C)C)c1` (repeat unit), 254.50 °C. With `*C(=O)c1cccc(C(=O)c2ccc3c(c2)C(=O)N(c2ccc(Oc4ccc(N5C(=O)c6ccc(*)cc6C5=O)cc4)cc2)C3=O)c1` (repeat unit) the figure was 244.00 °C.

Compound `*C1=C(c2ccc(-c3ccc4c(c3)C(CCCCCC)(CCCCCC)c3cc(-c5ccc(*)cc5)ccc3-4)cc2)C(=O)N(CCCC)C1=O` (repeat unit) registered a glass transition temperature of 155.00 °C. With `*CCCCCCCCCCCCCCc1ccc(-c2c(-c3ccccc3)cc(-c3cccc(-c4cc(-c5ccccc5)c(-c5ccc(*)cc5)c(-c5ccccc5)c4-c4ccccc4)c3)c(-c3ccccc3)c2-c2ccccc2)cc1` (repeat unit) the figure was 160.00 °C. With `*CCCCCCCCCCc1ccc(-c2c(-c3ccccc3)cc(-c3cccc(-c4cc(-c5ccccc5)c(-c5ccc(*)cc5)c(-c5ccccc5)c4-c4ccccc4)c3)c(-c3ccccc3)c2-c2ccccc2)cc1` (repeat unit) the figure was 180.00 °C; with `*CCCCCCCCCN1C(=O)c2ccc(-c3ccc(-c4ccc5c(c4)C(=O)N(*)C5=O)cc3)cc2C1=O` (repeat unit), 104.00 °C.

The compound `*CCCCCCN1C(=O)C(=O)N(c2ccc(C)c(N3C(=O)C(=O)N(*)C3=O)c2)C1=O` (repeat unit) registered a glass transition temperature of 181.50 °C. For the compound `*CCCCCCN1C(=O)c2ccc(-c3ccc(-c4ccc5c(c4)C(=O)N(*)C5=O)cc3)cc2C1=O` (repeat unit), the glass transition temperature is 141.00 °C. As to `*CCCCNC(=O)c1ccc(C(C)(CC)c2ccc(C(=O)N*)cc2)cc1` (repeat unit), the glass transition temperature was 182.00 °C. Under `*CCCCc1ccc(-c2c(-c3ccccc3)cc(-c3ccc(-c4cc(-c5ccccc5)c(-c5ccc(*)cc5)c(-c5ccccc5)c4-c4ccccc4)cc3)c(-c3ccccc3)c2-c2ccccc2)cc1` (repeat unit) stands 205.00 °C. With `*CCCCc1ccc(-c2c(-c3ccccc3)cc(-c3cccc(-c4cc(-c5ccccc5)c(-c5ccc(*)cc5)c(-c5ccccc5)c4-c4ccccc4)c3)c(-c3ccccc3)c2-c2ccccc2)cc1` (repeat unit) the figure was 180.00 °C. The compound `*CCN(CCOC(=O)c1ccc([Si](C)(C)c2ccc(C(=O)O*)cc2)cc1)c1ccc(/C=C/c2ccc([N+](=O)[O-])cc2)cc1` (repeat unit) displayed a glass transition temperature of 127.00 °C. Under `*CCNC(=O)c1ccc([Si](CCCC)(CCCC)c2ccc(C(=O)NCCN(*)c3ccc(/C=C/c4ccc([N+](=O)[O-])cc4)cc3)cc2)cc1` (repeat unit) stands 115.00 °C.

Compound `*Nc1ccc(C2(c3ccc(NC(=O)c4ccc(-c5ccc(C(*)=O)c(C)c5)cc4C)cc3)c3ccccc3-c3ccccc32)cc1` (repeat unit) returned a glass transition temperature of 293.00 °C. As for `*Nc1cccc2c(NC(=O)c3ccc(NC(=O)c4ccc([Si](C)(C)c5ccc(C(=O)Nc6ccc(C(*)=O)cc6)cc5)cc4)cc3)cccc12` (repeat unit), the glass transition temperature was found to be 378.00 °C. Regarding `*OC(=O)c1ccc(C(C)(C)c2ccc(C(*)=O)cc2)cc1` (repeat unit), the glass transition temperature was found to be 100.00 °C. With `*ON(C(F)(F)F)C(F)(F)/C(F)=C(\F)C(*)(F)F` (repeat unit) the figure was -7.00 °C; with `*OS(=O)(=O)c1cc(S(=O)(=O)Oc2ccc(C3(c4ccc(*)cc4)CCCC3)cc2)ccc1C` (repeat unit), 134.00 °C. Under `*Oc1ccc(NC(=O)c2cc(-c3ccc(C(=O)O)c(C(=O)Nc4ccc(*)cc4)c3)ccc2C(=O)O)cc1` (repeat unit) stands 184.40 °C; under `*Oc1ccc(NC(=O)c2cc(-c3ccc(C(=O)OCC)c(C(=O)Nc4ccc(*)cc4)c3)ccc2C(=O)OCC)cc1` (repeat unit), 190.2 °C; under `*Oc1ccc(Oc2ccc(Oc3ccc(NC(=O)c4ccc(-c5ccc(C(=O)Nc6ccc(*)cc6)c(C)c5)cc4C)cc3)cc2)cc1` (repeat unit), 200.00 °C. Turning to `*Oc1ccc(S(=O)(=O)c2ccc(OC(=O)c3ccc([Si](C)(C)c4ccc(C(*)=O)cc4)cc3)cc2)cc1` (repeat unit), the glass transition temperature was 235.00 °C. `*Oc1ccc(S(=O)(=O)c2ccc(Oc3cccc(NC(=O)c4ccc(-c5ccc(C(=O)Nc6cccc(*)c6)c(C)c5)cc4C)c3)cc2)cc1` (repeat unit) yielded a glass transition temperature of 220.00 °C. With `*Oc1cccc(NC(=O)c2ccc([Si](C)(C)c3ccc(C(*)=O)cc3)cc2)c1` (repeat unit) the figure was 220.00 °C; with `*Oc1cccc(Oc2ccc(/N=C/c3ccc(N(c4ccccc4)c4ccc(/C=N/c5ccc(*)cc5)cc4)cc3)cc2)c1` (repeat unit), 174.00 °C; with `*c1ccc(-c2ccc(-c3nnc(-c4ccc([Si](c5ccccc5)(c5ccccc5)c5ccc(-c6nnc(*)o6)cc5)cc4)o3)cc2)cc1` (repeat unit), 278.00 °C.

`*c1ccc(-c2ccc3c(c2)C(CCCCCCC#N)(CCCCCCC#N)c2cc(*)ccc2-3)cc1` (repeat unit) showed a glass transition temperature of 90.00 °C. With `*c1ccc(-c2ccc3c(c2)C(CCCCCCCC)(CCCCCCCC)c2cc(*)ccc2-3)c(F)c1` (repeat unit) the figure was 34.00 °C.

The compound `*c1ccc(-c2ccc3nc(*)cc(-c4ccccc4)c3c2)cc1` (repeat unit) had a glass transition temperature of 383.00 °C. Under `*c1ccc(-c2cnc3cc4nc(*)cnc4cc3n2)cc1` (repeat unit) stands 392.00 °C. `*c1ccc(-c2nc3cc(C)ccc3o2)c(*)c1` (repeat unit) returned a glass transition temperature of 221.00 °C. In turn, `*c1ccc(-c2nc3cc(S(=O)(=O)c4ccc5nc(-c6ccccc6)c(-c6ccc(-n7c(=O)c8cc9c(=O)n(*)c(=O)c9cc8c7=O)cc6)nc5c4)ccc3nc2-c2ccccc2)cc1` (repeat unit) displayed a glass transition temperature of 186.00 °C. With `*c1ccc(-c2nc3cc4sc(*)nc4cc3s2)cc1` (repeat unit) the figure was 25.00 °C; with `*c1ccc(-c2nc3ccc(Oc4ccc5nc(*)c(-c6ccccc6)c(-c6ccccc6)c5c4)cc3c(-c3ccccc3)c2-c2ccccc2)cc1` (repeat unit), 345.00 °C.

Consider `*c1ccc(-c2nnc(*)o2)c(OCCCCCCCC)c1` (repeat unit), for which the glass transition temperature is 173.00 °C.

Regarding `*c1ccc(-c2nnc(-c3cccc(-c4nnc(*)n4-c4ccccc4)c3)n2-c2ccccc2)cc1` (repeat unit), the glass transition temperature worked out at 272.50 °C. Take `*c1ccc(-n2c(=O)c3cc4c(=O)n(*)c(=O)c4cc3c2=O)c(S(=O)(=O)[O][Na])c1` (repeat unit): the glass transition temperature was 227.00 °C. Under `*c1ccc(/C=C/c2ccc(-n3c(=O)c4cc5c(=O)n(*)c(=O)c5cc4c3=O)cc2S(=O)(=O)[O][Na])c(S(=O)(=O)[O][Na])c1` (repeat unit) stands 228.00 °C; under `*c1ccc(C(F)(F)C(*)(F)F)cc1` (repeat unit), 77.0 °C; under `*c1ccc(C(c2ccc(N(*)c3ccc(C)cc3)cc2)c2ccc([N+](=O)[O-])cc2)cc1` (repeat unit), 215.00 °C.

In turn, `*c1ccc(C(c2ccc(N3C(=O)c4cc5c(cc4C3=O)C(C(F)(F)F)(C(F)(F)F)c3cc4c(cc3O5)C(=O)N(*)C4=O)cc2)(C(F)(F)F)C(F)(F)F)cc1` (repeat unit) yielded a glass transition temperature of 430.00 °C. `*c1ccc(C(c2ccccc2)(c2ccc(-n3c(=O)c4cc5c(=O)n(*)c(=O)c5cc4c3=O)cc2)C(F)(F)F)cc1` (repeat unit): the glass transition temperature was determined as 436.00 °C. Under `*c1ccc(C)c(N2C(=O)c3ccc(-c4ccc5c(c4)C(=O)N(*)C5=O)cc3C2=O)c1` (repeat unit) stands 395.00 °C; under `*c1ccc(CCc2ccc(N3C(=O)C(=O)N(*)C3=O)cc2)cc1` (repeat unit), 196.00 °C; under `*c1ccc(S(=O)(=O)c2ccc(-n3nccc3-c3ccc(-c4ccnn4*)cc3)cc2)cc1` (repeat unit), 266.00 °C. In the case of `*c1ccc(S(=O)(=O)c2ccc(-n3nccc3-c3cccc(-c4ccnn4*)c3)cc2)cc1` (repeat unit), the glass transition temperature is 218.00 °C. Under `*c1ccc([Si](c2ccccc2)(c2ccccc2)c2ccc(-c3nnc(*)o3)cc2)cc1` (repeat unit) stands 262.00 °C. In the case of `*c1ccc([Si](c2ccccc2)(c2ccccc2)c2ccc(-c3nnc(-c4ccc(-c5nnc(*)o5)cc4)o3)cc2)cc1` (repeat unit), the glass transition temperature is 274.00 °C. As for `*c1ccc2c(c1)C(=O)N(c1cc(N3C(=O)c4ccc(C(*)(C(F)(F)F)C(F)(F)F)cc4C3=O)ccc1C)C2=O` (repeat unit), the glass transition temperature was 335.00 °C.

`*c1ccc2c(c1)C(=O)N(c1cc(NC(=O)OCCN(CCOC(=O)Nc3cc(N4C(=O)c5ccc(C(*)(C(F)(F)F)C(F)(F)F)cc5C4=O)ccc3C)c3ccc(/N=N/c4ccc([N+](=O)[O-])cc4)cc3)ccc1C)C2=O` (repeat unit) came in with a glass transition temperature of 196.00 °C. With `*c1ccc2oc(-c3ccc(C(c4ccccc4)(c4ccc(-c5nc6cc(C(*)(C(F)(F)F)C(F)(F)F)ccc6o5)cc4)C(F)(F)F)cc3)nc2c1` (repeat unit) the figure was 310.00 °C.

`*c1ccc2oc(-c3ccc(C(c4ccccc4)(c4ccc(-c5nc6cc(C(*)(c7ccccc7)C(F)(F)F)ccc6o5)cc4)C(F)(F)F)cc3)nc2c1` (repeat unit) displayed a glass transition temperature of 330.00 °C.
